Source: US9199943B2, “2-(poly-substituted aryl)-6-amino-5-halo-4-pyrimidinecarboxylic acids and their use as herbicides” (Dow AgroSciences, LLC., priority 2006, dated 2015)
Blank lines part the entries; values can stand above or below the molecule they belong to.

Assays:
[1] = system: CHEAL = lambsquarter (Chenopodium album); assay: General postemergence herbicidal activity, lambsquarter; assay type: in vivo; details: Chenopodium album, post-emergence, 336 h; post-emergent, 140 g ai/ha, visual score after 14 days (0 no injury, 100 complete kill)
Description: (§1) Seeds or nutlets of the desired test plant species were planted in Sun Gro MetroMix® 306 planting mixture, which typically has a pH of 6.0 to 6.8 and an organic matter content of about 30 percent, in plastic pots with a surface area of 64 square centimeters. When required to ensure good germination and healthy plants, a fungicide treatment and/or other chemical or physical treatment was applied. The plants were grown for 7-21 days in a greenhouse with an approximate 15 hour photoperiod which was maintained at about 23-29° C. during the day and 22-28° C. during the night. Nutrients and water were added on a regular basis and supplemental lighting was provided with overhead metal halide 1000-Watt lamps as necessary. The plants were employed for testing when they reached the first or second true leaf stage.
(§2) A weighed amount, determined by the highest rate to be tested, of each test compound was placed in a 25 mL glass vial and was dissolved in 4 mL of a 97:3 v/v (volume/volume) mixture of acetone and dimethyl sulfoxide (DMSO) to obtain concentrated stock solutions. […] The concentrated stock solutions obtained were diluted with 20 mL of an aqueous mixture containing acetone, water, isopropyl alcohol, DMSO, Atplus 411F crop oil concentrate, and Triton X-155 surfactant in a 48.5:39:10:1.5:1.0:0.02 v/v ratio to obtain spray solutions containing the highest application rates. Additional application rates were obtained by serial dilution of 12 mL of the high rate solution into a solution containing 2 mL of 97:3 v/v (volume/volume) mixture of acetone and dimethyl sulfoxide (DMSO) and 10 mL of an aqueous mixture containing acetone, water, isopropyl alcohol, DMSO, Atplus 411F crop oil concentrate, and Triton X-155 surfactant in a 48.5:39:10:1.5:1.0:0.02 v/v ratio to obtain ½×, ¼×, ⅛× and 1/16× rates of the high rate. Compound requirements are based upon a 12 mL application volume at a rate of 187 L/ha. Formulated compounds were applied to the plant material with an overhead Mandel track sprayer equipped with a 8002E nozzles calibrated to deliver 187 L/ha over an application area of 0.503 square meters at a spray height of 18 inches (43 cm) above the average plant canopy height. Control plants were sprayed in the same manner with the solvent blank.
(§3) The treated plants and control plants were placed in a greenhouse as described above and watered by sub-irrigation to prevent wash-off of the test compounds. After 14 days, the condition of the test plants as compared with that of the untreated plants was determined visually and scored on a scale of 0 to 100 percent where 0 corresponds to no injury and 100 corresponds to complete kill.
(§4) By applying the well-accepted probit analysis as described by J. Berkson in Journal of the […], 48, 565 (1953) and by D. Finney in “Probit Analysis” Cambridge University Press (1952), the above data can be used to calculate GR50 and GR80 values, which are defined as growth reduction factors that correspond to the effective dose of herbicide required to kill or control 50 percent or 80 percent, respectively, of a target plant.

[2] = system: HELAN = sunflower (Helainthus annuus); assay: General postemergence herbicidal activity, sunflower; assay type: in vivo; details: post-emergence, 336 h; post-emergent, 140 g ai/ha, visual score after 14 days (0 no injury, 100 complete kill)
Description: as §1, §2, §3, §4

[3] = system: GALAP = Galium aparine; assay: Postemergence herbicidal activity in cereal crops, Galium aparine; assay type: in vivo; details: post-emergence, 480 h, post-emergent, after 20-22 days; for pest or weed control at 35 g/ha: 35 g ai/ha; for pest or weed control at 17.5 g/ha: 17.5 g ai/ha; for pest or weed control at 70 g/ha: 70 g ai/ha
Description: (§5) Seeds of the desired test plant species were planted in Sun Gro MetroMix® 306 planting mixture, which typically has a pH of 6.0 to 6.8 and an organic matter content of about 30 percent, in plastic pots with a surface area of 103.2 square centimeters. When required to ensure good germination and healthy plants, a fungicide treatment and/or other chemical or physical treatment was applied. The plants were grown for 7-36 days in a greenhouse with an approximate 14 hour photoperiod which was maintained at about 18° C. during the day and 17° C. during the night. Nutrients and water were added on a regular basis and supplemental lighting was provided with overhead metal halide 1000-Watt lamps as necessary. The plants were employed for testing when they reached the second or third true leaf stage.
(§6) A weighed amount, determined by the highest rate to be tested, of each test compound was placed in a 25 mL glass vial and was dissolved in 8 mL of a 97:3 v/v mixture of acetone and DMSO to obtain concentrated stock solutions. […] The concentrated stock solutions obtained were diluted with 16 mL of an aqueous mixture containing acetone, water, isopropyl alcohol, DMSO, Agri-dex crop oil concentrate, and Triton X-77 surfactant in a 64.7:26.0:6.7:2.0:0.7:0.01 v/v ratio to obtain spray solutions containing the highest application rates. Additional application rates were obtained by serial dilution of 12 mL of the high rate solution into a solution containing 4 mL of 97:3 v/v mixture of acetone and DMSO and 8 mL of an aqueous mixture containing acetone, water, isopropyl alcohol, DMSO, Agri-dex crop oil concentrate, and Triton X-77 surfactant in a 48.5:39.0:10.0:1.5:1.0:0.02 v/v ratio to obtain ½×, ¼×, ⅛× and 1/16× rates of the high rate. Compound requirements are based upon a 12 mL application volume at a rate of 187 L/ha. Formulated compounds were applied to the plant material with an overhead Mandel track sprayer equipped with a 8002E nozzles calibrated to deliver 187 L/ha over an application area of 0.503 square meters at a spray height of 18 inches (43 cm) above average plant canopy height. Control plants were sprayed in the same manner with the blank.
as §3, with “20-22” for “14”

[4] = system: VERPE = Veronica persica; assay: Postemergence herbicidal activity in cereal crops, Veronica persica; assay type: in vivo; details: post-emergence, 480 h, post-emergent, after 20-22 days; for pest or weed control at 35 g/ha: 35 g ai/ha; for pest or weed control at 17.5 g/ha: 17.5 g ai/ha; for pest or weed control at 70 g/ha: 70 g ai/ha
Description: as §5, §6
as §3, with “20-22” for “14”

SMILES: CCOc1c(Cl)ccc(-c2nc(N)c(Cl)c(C(=O)OC)n2)c1F [Compound 1, 6-amino-5-chloro-2-(4-chloro-3-ethoxy-2-fluorophenyl)-pyrimidine-4-carboxylic acid methyl ester]
pest or weed control at 140 g/ha [1]: 100%
pest or weed control at 140 g/ha [2]: 100%
pest or weed control at 35 g/ha [3]: 99%
pest or weed control at 35 g/ha [4]: 20%

SMILES: COC(=O)c1nc(-c2c(F)cc(Cl)c(OC)c2F)nc(N)c1Cl [Compound 2, 6-amino-5-chloro-2-(4-chloro-2,6-difluoro-3-methoxy-phenyl)pyrimidine-4-carboxylic acid methyl ester]
pest or weed control at 140 g/ha [1]: 100%
pest or weed control at 140 g/ha [2]: 100%
pest or weed control at 35 g/ha [3]: 95%
pest or weed control at 35 g/ha [4]: 50%

SMILES: COC(=O)c1nc(-c2ccc(Cl)c(OC)c2F)nc(N)c1Cl [Compound 3, 6-amino-5-chloro-2-(4-chloro-2-fluoro-3-methoxyphenyl)-pyrimidine-4-carboxylic acid methyl ester]
pest or weed control at 140 g/ha [1]: 100%
pest or weed control at 140 g/ha [2]: 100%
pest or weed control at 17.5 g/ha [3]: 95%
pest or weed control at 17.5 g/ha [4]: 99%

SMILES: COC(=O)c1nc(-c2ccc(Cl)c(OC)c2Cl)nc(N)c1Cl [Compound 6, 6-Amino-5-chloro-2-(2,4-dichloro-3-methoxyphenyl)pyrimidine-4-carboxylic acid methyl ester]
pest or weed control at 140 g/ha [1]: 100%
pest or weed control at 140 g/ha [2]: 100%
pest or weed control at 70 g/ha [3]: 85%
pest or weed control at 70 g/ha [4]: 99%

melting point: 155 to 157 °C
SMILES: COC(=O)c1nc(-c2ccc(Cl)c(C(F)F)c2F)nc(N)c1Cl [Compound 7, 6-Amino-5-chloro-2-(4-chloro-3-difluoromethyl-2-fluorophenyl)pyrimidine-4-carboxylic acid methyl ester]
pest or weed control at 140 g/ha [1]: 100%
pest or weed control at 140 g/ha [2]: 100%
pest or weed control at 17.5 g/ha [3]: 60%
pest or weed control at 17.5 g/ha [4]: 95%

melting point: 143 to 144 °C
SMILES: COC(=O)c1nc(-c2ccc(Cl)c(N(C)C)c2F)nc(N)c1Cl [Compound 8, 6-Amino-5-chloro-2-(4-chloro-3-dimethylamino-2-fluorophenyl)pyrimidine-4-carboxylic acid methyl ester]
pest or weed control at 140 g/ha [1]: 100%
pest or weed control at 140 g/ha [2]: 100%
pest or weed control at 35 g/ha [3]: 70%
pest or weed control at 35 g/ha [4]: 95%

SMILES: COC(=O)c1nc(-c2ccc3c(c2F)OCO3)nc(N)c1Cl [Compound 9, 6-Amino-5-chloro-2-(4-fluorobenzo[1,3]dioxol-5-yl)pyrimidine-4-carboxylic acid methyl ester]
pest or weed control at 140 g/ha [1]: 90%
pest or weed control at 140 g/ha [2]: 100%
pest or weed control at 70 g/ha [3]: 90%
pest or weed control at 70 g/ha [4]: 30%

melting point: 139 to 141 °C
SMILES: COC(=O)c1nc(-c2ccc(Cl)c(OCC(F)F)c2F)nc(N)c1Cl [Compound 10, 6-Amino-5-chloro-2-[4-chloro-3-(2,2-difluoroethoxy)-2-fluorophenyl]-pyrimidine-4-carboxylic acid methyl ester]
pest or weed control at 140 g/ha [1]: 85%
pest or weed control at 140 g/ha [2]: 80%
pest or weed control at 70 g/ha [3]: 65%
pest or weed control at 70 g/ha [4]: 20%

SMILES: COC(=O)c1nc(-c2ccc(Cl)c(OC)c2F)nc(N)c1Br [Compound 13, 6-amino-5-bromo-2-(4-chloro-2-fluoro-3-methoxyphenyl)-pyrimidine-4-carboxylic acid methyl ester]
pest or weed control at 140 g/ha [1]: 100%
pest or weed control at 140 g/ha [2]: 100%
pest or weed control at 17.5 g/ha [3]: 90%
pest or weed control at 17.5 g/ha [4]: 95%
